We go through 19 molecules from patent US5160727A, “Tumor cell sensitization method using quinazolinedione derivatives” (priority 1990, dated 1992).

The test system of assay [1] is P388R cells. Kind of assay: Potentiation of adriamycin activity and cell growth in P388 resistant cells (Table II). Type of assay: cell-based, murine. As to conditions: for activity at 5 µM / activity at 10 µM: Mus musculus; for Degree of ADR Potentiation in P388R: footnote a (drawing 3). The procedure:
The P388 murine leukemia cells used in obtaining the data set forth in Table I and Table II were obtained from Southern Research Institute (Birmingham, Ala.) and were cultured from ascites fluids of tumor-bearing DMA/2 mice and maintained in Fischer's medium supplemented with 10% horse serum, 10 μM 2-mercaptoethanol, and gentamycin (50 μg/mL). Cells were counted with a Model ZF Coulter Counter (Coulter Electronics, Inc., Hialeah, Fla.). Viability was determined by trypan blue exclusion. […] Cancer Inst.

In assay [2] the test system is P388S cells. Kind of assay: 72-hour growth inhibition of drug-sensitive P388S cells by anticancer drug alone or with modifier (Table I). As to conditions: modifier with adriamycin. Type of assay: cell-based, murine. How it is done: In performing the studies P388 that were sensitive to adriamycin (P388S) and P388 cells that were resistant to adriamycin (P388/ADR) were exposed to various concentrations of anticancer drug either alone or together with 5 μg/mL of modifier or sensitizer for 72 hours.
The P388 murine leukemia cells used in obtaining the data set forth in Table I and Table II were obtained from Southern Research Institute (Birmingham, Ala.) and were cultured from ascites fluids of tumor-bearing DMA/2 mice and maintained in Fischer's medium supplemented with 10% horse serum, 10 μM 2-mercaptoethanol, and gentamycin (50 μg/mL). Cells were counted with a Model ZF Coulter Counter (Coulter Electronics, Inc., Hialeah, Fla.). Viability was determined by trypan blue exclusion. The general methodology is described by W. D. Klohs, et al, Cancer Research 46, 4352-4356 (September 1986) and W. D. Klohs, et al, J. Nat'l. Cancer Inst. 75, 353-359 (1985).

The mark [3] stands for this setting: P388, test compound at 5 μM, read-out: % of Control Cell Growth.
The mark [4] stands for this setting: P388, test compound at 10 μM, read-out: % of Control Cell Growth.
[5] abbreviates: test compound at 5 μM with adriamycin.
Where [6] appears, read: test compound at 10 μM with adriamycin.
Setting [7] is: P388, read-out: % of Control Cell Growth.

Structures can show the parent of a compound that is named as a salt. Where two headings read alike, the source gives them in different places.

Consider `CCCSc1ccccc1N1CCN(CCCn2c(=O)[nH]c3ccccc3c2=O)CC1.Cl` [Example 2, 3-[3-[4-[2-(propylthio)phenyl]-1-piperazinyl]propyl]-2,4-(1H,3H)-quinazolinedione monohydrochloride], for which, in assay [1] (setting [3]), the activity at 5 µM worked out at 89%. In addition, the activity at 10 µM in assay [1] (setting [4]) was 87%. Also, the “Degree of ADR Potentiation in P388R” value was found to be 13.1 in assay [1] (setting [5]) and 22.0 in assay [1] (setting [6]).

Turning to `CCCSc1ccccc1N1CCN(CCCCn2c(=O)[nH]c3ccc(Cl)cc3c2=O)CC1.Cl` [Example 3, 6-chloro-3-[4-[4-[2-(propylthio)phenyl]-1-piperazinyl]butyl]-2,4-(1H,3H)quinazolinedione monohydrochloride], the activity at 5 µM in assay [1] (setting [3]) amounted to 100%. In addition, the activity at 10 µM in assay [1] (setting [4]) was 88%. The “Degree of ADR Potentiation in P388R” value in assay [1] (setting [5]) is reported as 19.6; in assay [1] (setting [6]), 44.7.

Regarding `Cl.O=c1[nH]c2ccccc2c(=O)n1CCCCN1CCN(c2cccc(Cl)c2Cl)CC1` [Example 4, 3-[4-[4-(2,3-dichlorophenyl)-1-piperazinyl]butyl]-2,4-(1H,3H)-quinazolinedione monohydrochloride], in assay [1] (setting [7]), the activity at 5 µM was determined as 76% and the activity at 10 µM came to 76%. In assay [1] (setting [5]), the “Degree of ADR Potentiation in P388R” value was 21.8. Moreover, the “Degree of ADR Potentiation in P388R” value in assay [1] (setting [6]) is recorded as 31.7.

With `CCSc1ccccc1N1CCN(CCCCn2c(=O)[nH]c3ccccc3c2=O)CC1.Cl` [Example 5, 3-[4-[4-[2-(ethylthio)phenyl)-1-piperazinyl]butyl]-2,4-(1H,3H)-quinazolinedione monohydrochloride], the activity at 5 µM in assay [1] (setting [3]) came to 79%. For the same molecule, in assay [1] (setting [4]), the activity at 10 µM amounted to 78%. Also, the figures for the “Degree of ADR Potentiation in P388R” value in assay [1] (setting [5]) and in assay [1] (setting [6]) were 19.6 and 46.6, respectively.

For the molecule `CC(C)Sc1ccccc1N1CCN(CCCCn2c(=O)[nH]c3ccccc3c2=O)CC1.Cl` [Example 6, 3-[4-[4-[2-[(1-methylethyl)thio]phenyl]-1-piperazinyl]butyl]-2,4-(1H,3H)-quinazolinedione monohydrochloride], in assay [1] (setting [3]), the activity at 5 µM came out at 91%. Also, in assay [1] (setting [4]), the activity at 10 µM turned out to be 59%. The “Degree of ADR Potentiation in P388R” value worked out at 24.2 in assay [1] (setting [5]) and 52.2 in assay [1] (setting [6]).

Regarding `CSc1ccccc1N1CCN(CCCCn2c(=O)[nH]c3ccccc3c2=O)CC1` [Example 7, 3-[4-[4-[2-methylthio)phenyl]-1-piperazinyl]butyl]-2,4(1H,3H)quinazolinedione monohydrochloride], the activity at 5 µM in assay [1] (setting [3]) worked out at 95%. Further, the activity at 10 µM in assay [1] (setting [4]) worked out at 72%. Further, the “Degree of ADR Potentiation in P388R” value is 25.2 in assay [1] (setting [5]) and 48.4 in assay [1] (setting [6]).

For `CCCCSc1ccccc1N1CCN(CCCCn2c(=O)[nH]c3ccccc3c2=O)CC1.Cl` [Example 8, 3-[4-[4-[2-(butylthio)phenyl]-1-piperazinyl]butyl]-2,4-(1H,3H)-quinazolinedione monohydrochloride], in assay [1] (setting [3]), the activity at 5 µM was 88%. Further, in assay [1] (setting [4]), the activity at 10 µM amounted to 86%. Moreover, the results for the “Degree of ADR Potentiation in P388R” value in assay [1] (setting [5]) and in assay [1] (setting [6]) were 25.0 and 48.4, respectively.

Turning to `CCCSc1ccccc1N1CCN(CCCCn2c(=O)[nH]c3cc(Cl)ccc3c2=O)CC1.Cl` [Example 9, 7-chloro-3-[4-[4-[2-(propylthio)phenyl]-1-piperazinyl]butyl]2,4(1H,3H)-quinazolinedione monohydrochloride], in assay [1] (setting [3]), the activity at 5 µM was 100%. Further, the activity at 10 µM in assay [1] (setting [4]) amounted to 85%. Besides, the “Degree of ADR Potentiation in P388R” value in assay [1] (setting [5]) was 22.2; in assay [1] (setting [6]), 35.4.

With `CCCSc1ccccc1N1CCN(CCCCn2c(=O)[nH]c3ccc(C)cc3c2=O)CC1.Cl` [Example 10, 6-methyl-3-[4-[4[2(propylthio)phenyl]-1-piperazinyl]butyl]-2,4(1H,3H)-quinazolinedione monohydrochloride], in assay [1] (setting [3]), the activity at 5 µM stood at 92%. Further, in assay [1] (setting [4]), the activity at 10 µM worked out at 85%. The “Degree of ADR Potentiation in P388R” value in assay [1] (setting [5]) was 21.0; in assay [1] (setting [6]), 48.4.

Take `CCCSc1ccccc1N1CCN(CCCCCCn2c(=O)[nH]c3ccccc3c2=O)CC1` [Example 11, 3-[6-[4-[2-(propylthio)phenyl]-1-piperazinyl]hexyl]-2,4-(1H,3H)quinazolinedione monohydrochloride, 1/3 hydrate]: the activity at 5 µM in assay [1] (setting [3]) turned out to be 99%. Further, the activity at 10 µM in assay [1] (setting [4]) came to 66%. The “Degree of ADR Potentiation in P388R” value in assay [1] (setting [5]) was found to be 73.8; in assay [1] (setting [6]), 52.2.

In the case of `CCCSc1ccccc1N1CCN(CCCCn2c(=O)c3ccccc3n(C)c2=O)CC1` [Example 12, 1-methyl-3-[4-[4-[2-(propylthio)phenyl]-1-piperazinyl]butyl] -2,4-(1H,3H)quinazolinedione], in assay [1] (setting [3]), the activity at 5 µM came out at 100%. In assay [1] (setting [4]), the activity at 10 µM is 87%. Besides, the “Degree of ADR Potentiation in P388R” value amounted to 17.9 in assay [1] (setting [5]) and 39.1 in assay [1] (setting [6]).

For the molecule `CCCSc1ccccc1N1CCN(CCCCn2c(=O)[nH]c3cc(OC)c(OC)cc3c2=O)CC1` [Example 13, 6,7-dimethoxy-3-[4-[4-[2-(propylthio)phenyl]-1-piperazinyl]butyl]-2,4-(1H,3H)-quinazolinedione], in assay [1] (setting [3]), the activity at 5 µM came to 100%. Besides, the activity at 10 µM in assay [1] (setting [4]) was 10.4%. Besides, the “Degree of ADR Potentiation in P388R” value worked out at 93.0 in assay [1] (setting [5]) and 52.2 in assay [1] (setting [6]).

Regarding `CCCSc1ccccc1N1CCN(CCCCCn2c(=O)[nH]c3cc(OC)c(OC)cc3c2=O)CC1` [Example 14, 6,7-dimethoxy-3-[5-[4-[2-(propylthio)phenyl]-1-piperazinyl]pentyl]-2,4(1H,3H)-quinazolinedione], the activity at 5 µM in assay [1] (setting [3]) was 53%. The activity at 10 µM in assay [1] (setting [4]) worked out at 1.2%. For the same molecule, in assay [1] (setting [5]), the “Degree of ADR Potentiation in P388R” value is listed as 65.0.

As to `CCCSc1ccccc1N1CCN(CCCCn2c(=O)c3cc(OC)c(OC)cc3n(C)c2=O)CC1` [Example 15, 6,7-dimethoxy-1-methyl-3-[4-[4-[2-(propylthio)phenyl]-1-piperazinyl]butyl]-2,4(1H,3H)-quinazolinedione], the activity at 5 µM in assay [1] (setting [3]) worked out at 46%. Also, the activity at 10 µM in assay [1] (setting [4]) came out at 2.6%. Moreover, the “Degree of ADR Potentiation in P388R” value in assay [1] (setting [5]) was 21.2.

With `CCCSc1ccccc1N1CCN(CCCCCn2c(=O)c3cc(OC)c(OC)cc3n(C)c2=O)CC1` [Example 16, 6,7-dimethoxy-1-methyl-3-[5-[4-[2-(propylthio)phenyl]-1-piperazinyl]pentyl]-2,4(1H,3H)-quinazolinedione], in assay [1] (setting [3]), the activity at 5 µM amounted to 33%. Also, the activity at 10 µM in assay [1] (setting [4]) is 4.2%. For the same molecule, the “Degree of ADR Potentiation in P388R” value in assay [1] (setting [5]) was determined as 44.5.

As to `CCCSc1ccccc1N1CCN(CCCCn2c(=O)[nH]c3c(OC)cccc3c2=O)CC1` [Example 17, 8-methoxy-3-[4-[4-[2-(propylthio)phenyl]-1-piperazinyl]butyl]-2,4-(1H,3H)quinazolinedione], the activity at 5 µM in assay [1] (setting [3]) is 83%. For the same molecule, the activity at 10 µM in assay [1] (setting [4]) was 39%. Further, the “Degree of ADR Potentiation in P388R” value in assay [1] (setting [5]) is recorded as 3.4; in assay [1] (setting [6]), 67.2.

Take `CCCSc1ccccc1N1CCN(CCCCn2c(=O)c3cccc(OC)c3n(C)c2=O)CC1.Cl` [Example 18, 8-methoxy-1-methyl-3-[4-[4-[2-(propylthio)phenyl]-1-piperazinyl]butyl]-2,4-(1H,3H)quinazolinedione monohydrochloride]: the activity at 5 µM in assay [1] (setting [3]) turned out to be 100%. In addition, the activity at 10 µM in assay [1] (setting [4]) was determined as 87%. In addition, the “Degree of ADR Potentiation in P388R” value came out at 21.1 in assay [1] (setting [5]) and 24.6 in assay [1] (setting [6]).

`CCCSc1ccccc1N1CCN(CCCCCn2c(=O)[nH]c3ccccc3c2=O)CC1` [Example 19, 3-[5-[4-[2-(propylthio)phenyl]-1-piperazinyl]pentyl]-2,4-(1H,3H)-quinazolinedione]: the activity at 5 µM in assay [1] (setting [3]) worked out at 100%. Moreover, the activity at 10 µM in assay [1] (setting [4]) came to 68%. Moreover, the entries for the “Degree of ADR Potentiation in P388R” value in assay [1] (setting [5]) and in assay [1] (setting [6]) were 36.7 and 66.9, respectively.

For the molecule cyclosporin A, in assay [2], the “effect on adriamycin activity in drug-sensitive parent P388S cells” value is listed as “little effect”.
